# Measurements reported in patent US8361996B2, “Imidazolyl substituted steroidal and indan-1-one derivatives” (Council of Scientific and Industrial Research, priority 2005, dated 2013).
# Where two headings read alike, the source gives them in different places.
# Experiments:
# aromatase (CYP19) = molecular target: T1, aromatase (CYP19) (Homo sapiens, UniProt P11511); test: Inhibition of aromatase, human placental microsomes, 3H2O release; type: biochemical
# T1 construct: The enzyme was obtained from the microsomal fraction of freshly delivered human term placental tissue; from tissue; host or cells: human term placenta, microsomal fraction
# T1 sequence (P11511 1-503): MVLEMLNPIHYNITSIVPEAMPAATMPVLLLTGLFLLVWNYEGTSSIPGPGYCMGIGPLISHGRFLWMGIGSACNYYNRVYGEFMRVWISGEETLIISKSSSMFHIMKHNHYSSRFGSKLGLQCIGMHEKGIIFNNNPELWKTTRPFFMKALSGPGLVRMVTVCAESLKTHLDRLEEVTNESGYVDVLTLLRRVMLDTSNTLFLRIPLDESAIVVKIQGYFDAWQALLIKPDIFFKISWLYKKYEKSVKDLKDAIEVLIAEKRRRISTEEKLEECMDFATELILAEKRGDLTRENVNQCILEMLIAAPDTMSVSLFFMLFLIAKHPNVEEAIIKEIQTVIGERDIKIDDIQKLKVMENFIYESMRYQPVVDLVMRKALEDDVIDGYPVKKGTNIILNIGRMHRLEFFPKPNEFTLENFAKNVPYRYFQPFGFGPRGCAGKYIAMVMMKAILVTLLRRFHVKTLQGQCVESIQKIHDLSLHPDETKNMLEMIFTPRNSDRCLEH
# [1] = Substrate: 1β 3H-androstenedione/androstenedione 500 nm
# [2] = human placental microsomes and [1β,2β-3H] testosterone
smiles,measurement,setting,value
COc1cc(C=C2C[C@H]3[C@@H]4CC=C5C[C@@H](O)CC[C@]5(C)[C@H]4CC[C@]3(C)C2=O)ccc1OCCCn1ccnc1,melting point,,199 to 201 °C
COc1cc(C=C2C[C@H]3[C@@H]4CC=C5C[C@@H](OC(C)=O)CC[C@]5(C)[C@H]4CC[C@]3(C)C2=O)ccc1OCCCn1ccnc1,melting point,,109 to 111 °C
COc1cc(C=C2C[C@H]3[C@@H]4CC=C5C[C@@H](OC(C)=O)CC[C@]5(C)[C@H]4CC[C@]3(C)[C@H]2OC(C)=O)ccc1OCCCn1ccnc1,melting point,,163 to 168 °C
C[C@]12CC[C@H](O)CC1=CC[C@@H]1[C@@H]2CC[C@]2(C)C(=O)C(=Cc3cccc(OCCCn4ccnc4)c3)C[C@@H]12,melting point,,211 to 212 °C
CC(=O)O[C@H]1CC[C@@]2(C)C(=CC[C@H]3[C@@H]4CC(=Cc5cccc(OCCCn6ccnc6)c5)[C@H](OC(C)=O)[C@@]4(C)CC[C@@H]32)C1,melting point,,97 to 99 °C
C[C@]12CC[C@H]3[C@@H](CC=C4C[C@@H](O)CC[C@@]43C)[C@@H]1C[C@H](n1ccnc1)[C@@H]2O,melting point,,285 to 287 °C
CC(=O)O[C@H]1CC[C@@]2(C)C(=CC[C@H]3[C@@H]4C[C@H](n5ccnc5)[C@H](OC(C)=O)[C@@]4(C)CC[C@@H]32)C1,melting point,,197 to 199 °C
"O=C1/C(=C/c2cccc(OCCCn3ccnc3)c2)Cc2ccccc21 [Compound 2, 2-[3-(3-Imidazol-1-yl-propoxy)-benzylidene]-indan-1-one]",melting point,,48 to 50 °C
same,Inhibition on CYP19a RP: Relative potency; relative to aminoglutethimide (=1),aromatase (CYP19); [1],42.5
same,aromatase inhibitory activity (in words),aromatase (CYP19); [2],good aromatase inhibitory activity
"O=C1/C(=C/c2ccccc2OCCCn2ccnc2)Cc2ccccc21 [Compound 4, 2-[2-(3-Imidazol-1-yl-propoxy)-benzylidene]-indan-1-one]",melting point,,76 to 78 °C
same,Inhibition on CYP19a RP: Relative potency; relative to aminoglutethimide (=1),aromatase (CYP19); [1],26.6
same,aromatase inhibitory activity (in words),aromatase (CYP19); [2],good aromatase inhibitory activity
"COc1ccc(/C=C2\Cc3ccccc3C2=O)cc1OCCCn1ccnc1 [Compound 6, 2-[3-(3-Imidazol-1-ylpropoxy)-4-methoxybenzylidene)indan-1-one]",melting point,,176 to 180 °C
same,Inhibition on CYP19a RP: Relative potency; relative to aminoglutethimide (=1),aromatase (CYP19); [1],22.5
same,aromatase inhibitory activity (in words),aromatase (CYP19); [2],good aromatase inhibitory activity
"COc1cc(/C=C2\Cc3ccccc3C2=O)ccc1OCCCn1ccnc1 [Compound 8, 2-[4-(3-Imidazol-1-ylpropoxy)-3-methoxybenzylidene)indan-1-one]",melting point,,123 to 127 °C
same,Inhibition on CYP19a RP: Relative potency; relative to aminoglutethimide (=1),aromatase (CYP19); [1],54.1
same,aromatase inhibitory activity (in words),aromatase (CYP19); [2],good aromatase inhibitory activity
same,IC50,"aromatase (CYP19); human placental microsomes and [1β,2β-3H] testosterone, read-out: IC50 for the aromatase inhibitory activity",0.55 µM
"O=C1C(=Cc2cccc(OCCn3ccnc3)c2)Cc2ccccc21 [Compound 10, 2-[3-(2-Imidazol-1-ylethoxy)-benzylidene]indan-1-one]",melting point,,218 to 220 °C
"COc1cc(/C=C2\C[C@H]3[C@@H]4CC=C5C[C@@H](O)CC[C@]5(C)[C@H]4CC[C@]3(C)[C@H]2O)ccc1OCCCn1ccnc1 [Compound 14, 16-[4-{3-(Imidazol-1-yl)propoxy}-3-methoxybenzylidene]-5-androstene-3β,17β-diol]",Inhibition on CYP19a RP: Relative potency; relative to aminoglutethimide (=1),aromatase (CYP19); [1],12.4
same,aromatase inhibitory activity (in words),aromatase (CYP19); [2],significant aromatase inhibitory activity
"C[C@]12CC[C@H]3[C@@H](CC=C4C[C@@H](O)CC[C@@]43C)[C@@H]1C/C(=C\c1cccc(OCCCn3ccnc3)c1)[C@@H]2O [Compound 20, 16-[3-{3-(imidazol-1-yl)propoxy}benzylidene]-5-androstene-3β,17β-diol]",melting point,,133 to 135 °C
same,Inhibition on CYP19a RP: Relative potency; relative to aminoglutethimide (=1),aromatase (CYP19),IC50: 9.1 μM RP: 3.3
same,IC50,"aromatase (CYP19); Substrate: 1β 3H-androstenedione/androstenedione 500 nm, read-out: Inhibition on CYP19a IC50",9.1 µM
same,aromatase inhibitory activity (in words),aromatase (CYP19); [2],significant aromatase inhibitory activity
"C[C@]12CCC(=O)C=C1CCC1C2CC[C@]2(C)C(=O)/C(=C/c3cccc(OCCCn4ccnc4)c3)CC12 (stereo partly drawn) [Compound 22, 16-[3-{3-(imidazol-1-yl)propoxy}benzylidene]-4-androstene-3,17-dione]",aromatase inhibitory activity (in words),aromatase (CYP19); [2],significant aromatase inhibitory activity
"CC(=O)O[C@H]1CC[C@@]2(C)C(=C/C(=N\OCCCn3ccnc3)[C@H]3[C@@H]4CC[C@H](OC(C)=O)[C@@]4(C)CC[C@@H]32)C1 [Compound 24, 7-[O-{3-(imidazol-1-yl)propyl}oximino]-5-androstene-3β,17β-diol diacetate]",melting point,,180 to 182 °C
same,IC50,aromatase (CYP19),3.1 µM
same,Inhibition on CYP19a RP: Relative potency; relative to aminoglutethimide (=1),aromatase (CYP19); [1],IC50: 3.1 μM RP: 9.6
same,aromatase inhibitory activity (in words),aromatase (CYP19); [2],significant aromatase inhibitory activity
"C[C@]12CC[C@H]3[C@@H](/C(=N\OCCCn4ccnc4)C=C4C[C@@H](O)CC[C@@]43C)[C@@H]1CC[C@@H]2O [Compound 25, 7-[O-{3-(Imidazol-1-yl)propyl}oximino]-5-androstene-3β,17β-diol]",melting point,,205 to 206 °C
same,IC50,aromatase (CYP19),12 µM
same,Inhibition on CYP19a RP: Relative potency; relative to aminoglutethimide (=1),aromatase (CYP19); [1],IC50: 12 μM RP: 2.5
same,aromatase inhibitory activity (in words),aromatase (CYP19); [2],significant aromatase inhibitory activity
"C[C@]12CC[C@H](O)CC1=CC[C@@H]1[C@@H]2CC[C@]2(C)C(=O)[C@@H](n3ccnc3)C[C@@H]12 [Compound 27, 16β-(Imidazol-1-yl)-17-oxo-5-androsten-3β-ol]",melting point,,249 to 251 °C
same,Inhibition on CYP19a RP: Relative potency; relative to aminoglutethimide (=1),aromatase (CYP19); [1],IC50: 3.3 Mm RP: 9.0
same,aromatase inhibitory activity (in words),aromatase (CYP19); [2],significant aromatase inhibitory activity
